According to US20110184418A1, “Unsealed, Non-Colloidal Radiopharmaceutical Compositions and Methods for Treatment of Abnormal Tissue” (priority 2009, published 2011):

Assay: Radioactive decay of the isotopes
Type: physicochemical
Conditions: at day 30, from half-life

| Compound | radioactive isotope expected to remain in the subject |
| --- | --- |
| [166Ho] [Ho-166, holmium-166] | less than 0.20% |
| [177Lu] [Lu-177, lutetium-177] | less than 6.25% |
